This is an account of results in patent US8404434B2, “Method for determining degree of negative effect of macrophages on vertebrate” (Yamasa Corporation, priority 2006, dated 2013).

For assay [1], the system named is Peritoneal macrophages. The experiment in a line: Diacetylspermine production by cultured macrophages with the tricarboxylate carrier inhibitor BTA. Type of assay: cell-based, mice. As to the method:
(§1) Peritoneal macrophages collected from mice injected with thioglycollate were inoculated into a 96-well microplate (1.25×10^5 cells/well), followed by culturing. In this case, cell culture was performed by use of RPMI 1640 medium containing 10% horse serum, the medium being supplemented with spermine (i.e., a raw material of diacetylpolyamine) (10 μM) and glucose (0, 1, or 2 g/L).
(§2) After completion of culturing, the levels of diacetylspermine and residual glucose contained in the medium were measured through a customary method. As is clear from FIG. 1, diacetylspermine is produced in response to depletion of glucose.
In order to examine the origin of acetyl CoA (i.e., a raw material of diacetylpolyamine), 1,2,3-benzyltricarboxylate (BTA), which is an inhibitor of a tricarboxylate carrier used for transportation of citrate from mitochondria to the cytoplasm, was added in an amount of 10 mM to a medium supplemented with no glucose, followed by measurement of diacetylspermine level.

Assay [2] deals with Peritoneal macrophages. The experiment in a line: Diacetylspermine production by cultured macrophages with the uncoupler DNP. The conditions noted are these: DNP 100 μM in medium, glucose 2 g/L, spermine 10 μM, cultured for two days; level in medium. Type of assay: cell-based, mice. As to the method: as §1, §2
Dinitrophenol (DNP), which is a reagent called “uncoupler” that forcibly reduces the active potential of mitochondria, is added to a medium in an amount of 100 μM, followed by culturing for two days in a manner similar to that described above. After completion of culturing, diacetylspermine level was measured. The medium was supplemented with glucose in an amount of 2 g/L.

The molecule `O=C(O)c1cccc(C(=O)O)c1C(=O)O` [BTA, 1,2,3-benzyltricarboxylate] had a Diacetylspermine in the assay on Peritoneal macrophages [1] (BTA 10 mM in medium supplemented with no glucose, level in medium) of 43.0 nM. Also, in the assay with Peritoneal macrophages [1] (BTA 10 mM, medium without glucose, result in words), the production of diacetylspermine entry is “inhibited”.

For `O=[N+]([O-])c1ccc(O)c([N+](=O)[O-])c1` [DNP, Dinitrophenol], the Diacetylspermine with Peritoneal macrophages [2] is reported as 61.8 nM.
